Assay results reported in ChEMBL document CHEMBL1136646, “Biphenyls as potent vitronectin receptor antagonists. Part 2: biphenylalanine ureas” (Bioorg Med Chem Lett, 2003).

target: Integrin alpha-V/beta-3 (Homo sapiens, UniProt P05106+P06756); assay: Binding affinity towards vitronectin receptor (alpha V-beta3) was determined; format: protein-complex assay
Sequence (P05106 27-788 limits assumed): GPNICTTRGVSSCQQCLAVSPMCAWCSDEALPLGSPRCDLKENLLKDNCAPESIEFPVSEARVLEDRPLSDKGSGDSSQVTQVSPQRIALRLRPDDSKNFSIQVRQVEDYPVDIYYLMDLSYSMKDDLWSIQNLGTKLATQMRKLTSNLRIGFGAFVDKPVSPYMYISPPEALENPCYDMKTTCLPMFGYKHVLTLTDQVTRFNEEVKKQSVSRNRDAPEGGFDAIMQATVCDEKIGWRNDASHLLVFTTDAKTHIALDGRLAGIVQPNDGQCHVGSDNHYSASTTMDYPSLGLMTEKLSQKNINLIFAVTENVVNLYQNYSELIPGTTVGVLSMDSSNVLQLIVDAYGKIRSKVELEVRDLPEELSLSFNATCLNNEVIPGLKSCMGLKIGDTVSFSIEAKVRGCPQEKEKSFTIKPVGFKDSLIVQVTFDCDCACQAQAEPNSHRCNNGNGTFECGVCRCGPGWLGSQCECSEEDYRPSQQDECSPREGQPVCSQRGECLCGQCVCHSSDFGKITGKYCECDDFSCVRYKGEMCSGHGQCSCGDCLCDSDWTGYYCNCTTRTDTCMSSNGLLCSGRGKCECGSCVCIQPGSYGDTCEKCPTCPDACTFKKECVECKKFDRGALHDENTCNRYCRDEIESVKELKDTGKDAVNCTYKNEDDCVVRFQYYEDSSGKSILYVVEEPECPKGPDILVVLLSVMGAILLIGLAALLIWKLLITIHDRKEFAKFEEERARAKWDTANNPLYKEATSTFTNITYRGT
Sequence (P06756 31-889 limits assumed): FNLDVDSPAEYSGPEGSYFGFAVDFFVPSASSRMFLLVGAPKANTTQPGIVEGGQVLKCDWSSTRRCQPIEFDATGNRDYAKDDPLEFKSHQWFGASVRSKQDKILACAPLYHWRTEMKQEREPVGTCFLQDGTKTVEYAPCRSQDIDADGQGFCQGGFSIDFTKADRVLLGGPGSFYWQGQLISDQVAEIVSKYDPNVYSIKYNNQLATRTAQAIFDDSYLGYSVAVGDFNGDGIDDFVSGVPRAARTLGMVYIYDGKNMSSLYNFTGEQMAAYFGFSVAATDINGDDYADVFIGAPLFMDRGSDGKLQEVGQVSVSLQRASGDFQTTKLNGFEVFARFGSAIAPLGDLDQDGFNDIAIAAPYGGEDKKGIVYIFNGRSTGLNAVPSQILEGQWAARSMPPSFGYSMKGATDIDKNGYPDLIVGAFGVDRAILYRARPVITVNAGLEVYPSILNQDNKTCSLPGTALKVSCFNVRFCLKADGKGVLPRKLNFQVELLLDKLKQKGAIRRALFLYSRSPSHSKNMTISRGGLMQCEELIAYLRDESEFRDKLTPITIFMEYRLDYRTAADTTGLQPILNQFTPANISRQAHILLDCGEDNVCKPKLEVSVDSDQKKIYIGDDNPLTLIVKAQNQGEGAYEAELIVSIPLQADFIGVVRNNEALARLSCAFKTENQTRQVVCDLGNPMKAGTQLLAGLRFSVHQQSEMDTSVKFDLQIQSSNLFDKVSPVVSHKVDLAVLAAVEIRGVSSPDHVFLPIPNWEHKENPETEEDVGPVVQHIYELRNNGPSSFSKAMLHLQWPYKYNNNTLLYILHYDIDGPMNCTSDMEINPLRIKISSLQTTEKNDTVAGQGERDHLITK
Sequence (P06756 891-1048 limits assumed): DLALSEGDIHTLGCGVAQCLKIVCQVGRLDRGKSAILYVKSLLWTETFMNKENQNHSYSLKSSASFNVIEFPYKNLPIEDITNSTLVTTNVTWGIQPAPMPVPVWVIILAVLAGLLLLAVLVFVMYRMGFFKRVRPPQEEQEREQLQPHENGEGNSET

Compound | Ki
CCCNC(=O)Nc1cccc(-c2ccc(C[C@H](NC(=O)OC3CCCC3)C(=O)O)cc2)c1 | 210 nM
CCC(C)NC(=O)Nc1cccc(-c2ccc(C[C@H](NS(=O)(=O)c3c(C)cc(C)cc3C)C(=O)O)cc2)c1 (stereo partly drawn) | 74 nM
CCCNC(=O)Nc1cccc(-c2ccc(C[C@H](NS(=O)(=O)Cc3ccccc3)C(=O)O)cc2)c1 | 300 nM
CCCNC(=O)Nc1cccc(-c2ccc(C[C@H](NS(=O)(=O)c3cccc(Cl)c3Cl)C(=O)O)cc2)c1 | 170 nM
Cc1cc(C)c(S(=O)(=O)N[C@@H](Cc2ccc(-c3cccc(NC(=O)NCC(F)(F)C(F)(F)F)c3)cc2)C(=O)O)c(C)c1 | 80 nM
CCCNC(=O)Nc1cccc(-c2ccc(C[C@H](NS(=O)(=O)C[C@]34CCC(CC3=O)C4(C)C)C(=O)O)cc2)c1 | 1 nM
Cc1cc(C)c(S(=O)(=O)N[C@@H](Cc2ccc(-c3ccc(C)c(NC(=O)NC4CCCC4)c3)cc2)C(=O)O)c(C)c1 | 100 nM
Cc1cc(C)c(S(=O)(=O)N[C@@H](Cc2ccc(-c3cccc(NC(=O)NCCSC(F)(F)F)c3)cc2)C(=O)O)c(C)c1 | 8 nM
CCCNC(=O)Nc1cccc(-c2ccc(C[C@H](NS(=O)(=O)c3ccc(Cl)cc3C(F)(F)F)C(=O)O)cc2)c1 | 100 nM
Cc1cc(C)c(S(=O)(=O)N[C@@H](Cc2ccc(-c3cccc(NC(=O)NC4CC4)c3)cc2)C(=O)O)c(C)c1 | 2.5 nM
CCCNC(=O)Nc1cccc(-c2ccc(C[C@H](NC(=O)OCC(C)C)C(=O)O)cc2)c1 | 900 nM
CCCNC(=O)Nc1cccc(-c2ccc(C[C@H](NS(C)(=O)=O)C(=O)O)cc2)c1 | 75 nM
Cc1cc(C)c(S(=O)(=O)N[C@@H](Cc2ccc(-c3cccc(NC(=N)N)c3)cc2)C(=O)O)c(C)c1 | 11 nM
CCCNC(=O)Nc1cccc(-c2ccc(C[C@H](NC(=O)NCc3ccccc3)C(=O)O)cc2)c1 | 850 nM
CCCNC(=O)Nc1cccc(-c2ccc(C[C@H](NC(=O)OCC)C(=O)O)cc2)c1 | 120 nM
CCCNC(=O)Nc1cccc(-c2ccc(C[C@H](NS(=O)(=O)c3cc(OC)ccc3OC)C(=O)O)cc2)c1 | 500 nM
CCCNC(=O)Nc1cccc(-c2ccc(C[C@H](NS(=O)(=O)c3c(C)cc(C)cc3C)C(=O)O)cc2)c1 | 4 nM
CCCNC(=O)Nc1cccc(-c2ccc(C[C@H](NC(=O)OCC(C)(C)C)C(=O)O)cc2)c1 | 800 nM
Cc1cc(C)c(S(=O)(=O)N[C@@H](Cc2ccc(-c3cccc(NC(=O)NC(C)C)c3)cc2)C(=O)O)c(C)c1 | 14 nM

Compound | Ki
CCCNC(=O)Nc1cccc(-c2ccc(C[C@H](NS(=O)(=O)c3ccccc3S(C)(=O)=O)C(=O)O)cc2)c1 | > 10000 nM
Cc1cc(C)c(S(=O)(=O)N[C@@H](Cc2ccc(-c3cccc(NC(=O)NCC(C)C)c3)cc2)C(=O)O)c(C)c1 | 10 nM
CCCNC(=O)Nc1cccc(-c2cccc(C[C@H](NS(=O)(=O)c3c(C)cc(C)cc3C)C(=O)O)c2)c1 | > 10000 nM
Cc1cc(C)c(S(=O)(=O)N[C@@H](Cc2ccc(-c3cccc(NC(N)=O)c3)cc2)C(=O)O)c(C)c1 | 80 nM
Cc1cc(C)c(S(=O)(=O)N[C@@H](Cc2ccc(-c3cccc(NC(=O)NCC(F)(F)F)c3)cc2)C(=O)O)c(C)c1 | 20 nM
CCCNC(=O)Nc1cccc(-c2ccc(C[C@H](NC(=O)c3ccc(OC)cc3)C(=O)O)cc2)c1 | > 10000 nM
CCCNC(=O)Nc1cccc(-c2ccc(C[C@H](NC(N)=O)C(=O)O)cc2)c1 | 560 nM
Cc1cc(C)c(S(=O)(=O)N[C@@H](Cc2ccc(-c3cccc(NC(=O)NCc4ccc(C(F)(F)F)cc4)c3)cc2)C(=O)O)c(C)c1 | 1000 nM
Cc1cc(C)c(S(=O)(=O)N[C@@H](Cc2ccc(-c3cccc(NC(=O)NCc4ccccn4)c3)cc2)C(=O)O)c(C)c1 | > 10000 nM
Cc1cc(C)c(S(=O)(=O)N[C@@H](Cc2ccc(-c3cccc(NC(=O)NCc4ccccc4)c3)cc2)C(=O)O)c(C)c1 | 60 nM
Cc1cc(C)c(S(=O)(=O)N[C@@H](Cc2ccc(-c3cccc(NC(=O)Nc4nc5ccccc5[nH]4)c3)cc2)C(=O)O)c(C)c1 | > 10000 nM
CCCNC(=O)Nc1cccc(-c2ccc(C[C@H](NC(=O)Oc3ccc(OC)cc3)C(=O)O)cc2)c1 | 300 nM
CNC(=O)Nc1cccc(-c2ccc(C[C@H](NS(=O)(=O)c3c(C)cc(C)cc3C)C(=O)O)cc2)c1 | 160 nM
CCCNC(=O)Nc1cccc(-c2ccc(C[C@H](NS(=O)(=O)c3ccc(OC)c(OC)c3)C(=O)O)cc2)c1 | 750 nM
Cc1cc(C)c(S(=O)(=O)N[C@@H](Cc2ccc(-c3ccc(C)c(NC(=O)NC4CC4)c3)cc2)C(=O)O)c(C)c1 | 10 nM
CCCNC(=O)Nc1cccc(-c2ccc(C[C@H](NS(=O)(=O)c3ccccc3C)C(=O)O)cc2)c1 | 70 nM
CCCNC(=O)Nc1cccc(-c2ccc(C[C@H](NS(=O)(=O)c3cc(Cl)ccc3OC)C(=O)O)cc2)c1 | 1700 nM
CCCNC(=O)Nc1cccc(-c2ccc(C[C@H](NS(=O)(=O)c3ccccc3C(F)(F)F)C(=O)O)cc2)c1 | > 10000 nM
CCCNC(=O)Nc1cccc(-c2ccc(C[C@H](NC(=O)OCc3ccccc3)C(=O)O)cc2)c1 | 800 nM
